Laboratory results taken from US11072634B2, “Inhibitors of transglutaminases” (Zedira GmbH, priority 2016, dated 2021).
Where a SMILES comes first, the peptide text is derived from it. [ ]: non-standard residue; d: D form. The star is where a group is joined. DON = [N-]=[N+]=CC(=O)CC[C@H](N)C(=O)O; Cbz = O=C(OCc1ccccc1)*

Columns and labels:
[1] = system: CaCo2 (human colon carcinoma cell line); assay: Cell Proliferation ELISA, BrdU; assay type: cell-based
Method: (§1) The following cell lines are used for determination of cytotoxicity: • CaCo2 (human colon carcinoma cell line) • Huh7 (human liver carcinoma cell line).
(§2) Cells are cultivated in DMEM/10% FCS at 37° C. and 5% CO2 in a 96 well plate with an initial seeding density of 2×10^4 cells/well.
(§3) Transglutaminase inhibitors are added to the cells with final concentrations from 0.1 μM to 1 mM one hour after seeding. The different inhibitor dilutions are prepared in DMSO, resulting in a final concentration of 1% (v/v) DMSO in every well (2 μl inhibitor in 200 μl cell culture medium). Cycloheximide (2.5 μg/ml) and Camptothecin (0.2 μg/ml) are used as control compounds. All measurements are performed in triplicates.
(§4) Determination of proliferation using Cell Proliferation ELISA, BrdU (Roche, Cat. No. 11647229001).
(§5) After 24 h of incubation with inhibitors or controls, BrdU is added to the cells. After further incubation for 18 h, the cells are fixed and cellular DNA becomes denatured. A monoclonal antibody (conjugated with peroxidase) raised against BrdU is added to the wells and binds to BrdU which is incorporated into the DNA. Substrate solution is added and absorbance at 450 nm is recorded. Further analysis is performed according to the manufacturer's protocol.

[2] = system: Huh7 (human liver carcinoma cell line); assay: Cell Proliferation ELISA, BrdU; assay type: cell-based
Method: as §1, §2, §3, §4, §5

[3] = system: CaCo2 (human colon carcinoma cell line); assay: Metabolic activity, EZ4U-Assay; assay type: cell-based
Method: as §1, §2, §3
(§6) Determination of metabolic activity using EZ4U-Assay (Biomedica, Cat. No. BI-5000).
(§7) After 48 h of incubation with inhibitors or controls, the tetrazolium substrate is added to the cells. Substrate turnover by the cells is measured over two hours at 450 nm (using 630 nm was reference wavelength).

[4] = system: Huh7 (human liver carcinoma cell line); assay: Metabolic activity, EZ4U-Assay; assay type: cell-based
Method: as §1, §2, §3, §6, §7

CaCo2 and Huh7 cells = assay: Cytotoxicity of transglutaminase inhibitors (BrdU and EZ4U); assay type: cell-based, human; conditions: BrdU and EZ4U, depending on the cell type
Method: as §1, §2, §3
Cytotoxicity of transglutaminase inhibitors is evaluated with two different assays:
as §4
After 24 h of incubation with inhibitors or controls, BrdU is added to the cells. After further incubation for 18 h, the cells are fixed and cellular DNA becomes denatured. […] Substrate solution is added and absorbance at 450 nm is recorded. […]
as §7

COC(=O)[C@H](CC(C)C)NC(=O)[C@@H]1CCCN1C(=O)[C@@H](NC(=O)[C@H](CCC(=O)C=[N+]=[N-])NC(=O)OCc1ccccc1)C(C)C [Compound Z006, Z-DON-VPL-OMe, reference compound] (Cbz-[DON]VPL-OMe)
Cytotoxicity concentration (>10% deviation from negative control), BrdU, Caco2 [1]: 250 µM | Cytotoxicity concentration (>10% deviation from negative control), BrdU, Huh-7 [2]: 125 µM | Cytotoxicity concentration (>10% deviation from negative control), EZ4U, Caoo2 [3]: 500 µM | Cytotoxicity concentration (>10% deviation from negative control), EZ4U, Huh-7 [4]: 125 µM | concentration at which cytotoxic (reduced cell proliferation and metabolic activity) (CaCo2 and Huh7 cells): 125 µM
